From patent US11406648B2, “C17-heteroaryl derivatives of oleanolic acid and methods of use thereof” (REATA PHARMACEUTICALS, INC., priority 2012, dated 2022)

Each compound was assayed on RAW264.7 mouse macrophages (assay: Suppression of IFNγ-induced NO production (Nitric Oxide Production and Cell Viability Assay)). Settings: IFNγ-induced NO production, Griess reagent, normalized to cell viability, 2 h pre-treatment, IFNγ 24 h.
Type: cell-based
Description: Assay results for the suppression of IFNγ-induced NO production are shown for several of the compounds of the present invention in Table 1 below. […] Details regarding this assay are provided in the Examples section below. Nitric Oxide Production and Cell Viability Assay. RAW264.7 mouse macrophages were plated in 96-well plates at 30,000 cells/well in triplicate in RPMI1640+0.5% FBS and incubated at 37° C. with 5% CO2. On the next day, cells were pre-treated with DMSO or drug (0-200 nM dose range) for 2 hours, and then treated with recombinant mouse IFNγ (R&D Systems) for 24 hours. Nitric Oxide concentration in media was determined using the Griess reagent system (Promega). Cell viability was determined using WST-1 reagent (Roche). IC50 values were determined based on the suppression of IFNγ induced Nitric Oxide production normalized to cell viability.
`Cc1nnc([C@]23CCC(C)(C)C[C@H]2[C@H]2C(=O)C=C4[C@@]5(C)C=C(C#N)C(=O)C(C)(C)[C@@H]5CC[C@@]4(C)[C@]2(C)CC3)o1` [TX63384] was tested, and the IC50 was 2 nM.
`CCCc1nnc([C@]23CCC(C)(C)C[C@H]2[C@H]2C(=O)C=C4[C@@]5(C)C=C(C#N)C(=O)C(C)(C)[C@@H]5CC[C@@]4(C)[C@]2(C)CC3)o1` [TX63475] was tested, and the IC50 was 5.7 nM.
In the case of `CC(C)c1nnc([C@]23CCC(C)(C)C[C@H]2[C@H]2C(=O)C=C4[C@@]5(C)C=C(C#N)C(=O)C(C)(C)[C@@H]5CC[C@@]4(C)[C@]2(C)CC3)o1` [TX63476], the IC50 is reported as 5.4 nM.
Work on `CC1(C)CC[C@]2(c3nnc(C4CC4)o3)CC[C@]3(C)[C@H](C(=O)C=C4[C@@]5(C)C=C(C#N)C(=O)C(C)(C)[C@@H]5CC[C@]43C)[C@@H]2C1` [TX63477] yielded an IC50 of 3.3 nM.
With `COCc1nnc([C@]23CCC(C)(C)C[C@H]2[C@H]2C(=O)C=C4[C@@]5(C)C=C(C#N)C(=O)C(C)(C)[C@@H]5CC[C@@]4(C)[C@]2(C)CC3)o1` [TX63478] the IC50 was 1.8 nM.
In the case of `CC1(C)CC[C@]2(c3nnco3)CC[C@]3(C)[C@H](C(=O)C=C4[C@@]5(C)C=C(C#N)C(=O)C(C)(C)[C@@H]5CC[C@]43C)[C@@H]2C1` [TX63479], the IC50 is reported as 1.1 nM.
`Cc1noc([C@]23CCC(C)(C)C[C@H]2[C@H]2C(=O)C=C4[C@@]5(C)C=C(C#N)C(=O)C(C)(C)[C@@H]5CC[C@@]4(C)[C@]2(C)CC3)n1` [TX63501] showed an IC50 of 1 nM.
`Cc1nnc(C[C@]23CCC(C)(C)C[C@H]2[C@H]2C(=O)C=C4[C@@]5(C)C=C(C#N)C(=O)C(C)(C)[C@@H]5CC[C@@]4(C)[C@]2(C)CC3)o1` [TX63593] showed an IC50 of 1.7 nM.
